Measured values published in patent publication EP0497921B1, “METHOD FOR INHIBITING ENZYMATIC SYNTHESIS OF NUCLEIC ACIDS USING ISOPSORALENS” (ISAACS, Stephen T., priority 1989, dated 1991).

Tested on: HIV 115-mer
Test: PCR sterilization with pre-irradiated compound (photoproduct) added to PCR product
Assay type: biochemical
Method: AMDMIP photoproduct was made by irradiating AMDMIP (using the CE-III device) in 1 x Taq buffer (50 mM KCL, 2.5 mM MgCl2, 10 mM Tris, pH 8.5, 200 µg/ml gelatin) in a separate vessel for 15 minutes at room temperature (RT). Aliquots of AMDMIP photoproduct and the unirradiated compound were added (by pipetting) at 50, 100, 200 and 300 µg/ml to 1 µl aliquots of a 10^6 dilution of PCR product copies. PCR product was provided by a) preparing template, b) providing template, c) providing PCR reagents, d) providing polymerase, e) mixing PCR reagents, template, and polymerase to initiate PCR, f) cycling to synthesize PCR product. Step a): Template Preparation. The templates were derived from actual patient samples. Ficoll-Hypaque separated peripheral blood mononuclear cells (PBMCs) are prepared from individuals enrolled in a longitudinal AIDS study. Approximately 1 X 10^6 cells are added to 10 ml of RPMI containing 10% fetal calf serum. The cells are pelleted by centrifugation at 200 x g for 5 minutes and washed twice with 10 ml PBS. […]
Again, to evaluate the efficacy of this method of sterilization, a subsequent polymerase chain reaction was carried out for 30 cycles in the presence of α-^32P-dCTP. PCR product was then quantitated by running gels (see above), cutting the bands (detected by autoradiography) and counting the bands on a commercial scintillation counter. […]

For “4'-Aminomethyl-4,5'-dimethylisopsoralen [AMDMIP]”, which “sterilization of PCR (30 cycles, autoradiography)” value (unirradiated AMDMIP at the same concentration as the photoproduct) is on record?
Its value is “PCR product is clearly evident”.

What about the “sterilization of PCR (30 cycles, autoradiography)” value (unirradiated compound at 50, 100, 200 and 300 µg/ml) of the same substance?
The value was “no sterilization”.
